One block for each compound: values may come before it.
How the values were obtained:
human PAI-1 [1] = target: T1, human PAI-1 (Homo sapiens, UniProt P05121); assay: PAI-1 inhibitory activity, t-PA with S-2288 chromogenic substrate (Reference Experimental Example 1); settings: system without compound after 30 minutes = 100%
Experimental: Subsequently, human-derived tissue plasminogen activator (t-PA) (manufactured by American Diagnostica, Inc. (USA); the same applies hereinafter) adjusted to 0.35 pmol/μL was added thereto, and the mixture was further incubated at 37° C. for 15 minutes.

[2] = system: cancer cell line (B16F10); assay: PD-L1 expression induced by rPAI-1 in B16F10 with STAT3 inhibitor (Experimental Example 18); assay type: cell-based, mouse; settings: simultaneous addition of rPAI-1 and STAT3 inhibitor
Experimental: In order to clarify the mechanism of induction of PD-L1 expression by PAI-1, rPAI-1 was added to a culture medium of a cancer cell line (B16F10); after culturing for 6 hours, the cells were collected, and the degree of phosphorylation of JAK/STAT molecules was analyzed.
Further, FIG. 18(B) confirmed that the increase in the PD-L1 expression induced by rPAI-1 was suppressed by simultaneous addition of rPAI-1 and a STAT3 inhibitor (BP-1-102, C188-9).

human PAI-1 [3] = target: T1, human PAI-1; assay: PAI-1 inhibitory activity, t-PA with Spectrozyme t-PA chromogenic substrate (Reference Experimental Example 2); assay type: biochemical; parameters: purchased Molecular Innovations, Inc. (USA)
Experimental: Subsequently, human-derived tissue plasminogen activator (t-PA) (manufactured by American Diagnostica, Inc. (USA); the same applies hereinafter) adjusted to 0.05 pmol/μL was added thereto, and the mixture was further incubated at 37° C. for 60 minutes. Then, 0.25 mM of Spectrozyme t-PA synthetic substrate (manufactured by American Diagnostica, Inc. (USA); the same applies hereinafter), which is a chromogenic substrate, was added. […]
Free p-nitroaniline removed from the chromogenic substrate (Spectrozyme t-PA) by t-PA action was measured using a spectrophotometer at an absorbance of 405 nm at 20-minute intervals, for 120 minutes.

[4] = Tables 5 to 7, first value column, head prints no concentration
[5] = Tables 5 to 7, second value column, head prints no concentration
[6] = compound 10 μm (head), system without compound after 120 minutes = 100%
[7] = compound 25 μm (head), system without compound after 120 minutes = 100%

T1 sequence (P05121 24-402): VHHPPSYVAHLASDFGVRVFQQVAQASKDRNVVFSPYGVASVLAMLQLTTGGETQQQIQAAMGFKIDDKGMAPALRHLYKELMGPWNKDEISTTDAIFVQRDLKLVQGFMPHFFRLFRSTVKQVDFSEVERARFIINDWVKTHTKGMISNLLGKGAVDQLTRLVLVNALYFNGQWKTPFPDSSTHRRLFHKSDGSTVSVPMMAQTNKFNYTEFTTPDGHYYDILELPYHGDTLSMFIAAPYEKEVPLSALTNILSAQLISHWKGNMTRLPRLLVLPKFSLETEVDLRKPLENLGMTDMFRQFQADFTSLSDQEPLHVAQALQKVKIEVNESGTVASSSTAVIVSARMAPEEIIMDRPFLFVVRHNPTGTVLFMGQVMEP

Compound: O=C(O)c1cc(Cl)ccc1NC(=O)C1CCCN(C(=O)Cc2cccc(-c3ccoc3)c2)C1 (stereo not shown) [Example 12]
PAI-1 activity % (human PAI-1 [1]; compound 20 μm (head)): 57.7%
PAI-1 activity % (human PAI-1 [1]; compound 50 μm (head)): 15.7%

PAI-1 activity % (human PAI-1 [1]; compound 20 μm (head)): 68.2%
PAI-1 activity % (human PAI-1 [1]; compound 50 μm (head)): 26.1%
Compound: O=C([O-])c1cc(Cl)ccc1NC(=O)C1CCCN(C(=O)c2cccc(-c3ccoc3)c2)C1.[Na+] (stereo not shown) [Example 11]

Compound: COc1ccc(S(=O)(=O)Nc2cc(-c3c(O)ccc4ccccc34)c(O)c3ccccc23)cc1 [Example C188-9]
increase in the PD-L1 expression induced by rPAI-1 [2]: suppressed

Compound: O=C(CCCNC(=O)c1cccc(-c2ccoc2)c1)Nc1ccc(Cl)cc1C(=O)O [Example 1]
PAI-1 activity % (human PAI-1 [1]; compound 20 μm (head)): 95.5%
PAI-1 activity % (human PAI-1 [1]; compound 50 μm (head)): 48.9%

Compound: CN(CC(=O)N(Cc1ccc(C2CCCCC2)cc1)c1ccc(C(=O)O)c(O)c1)S(=O)(=O)c1c(F)c(F)c(F)c(F)c1F [BP-1-102]
increase in the PD-L1 expression induced by rPAI-1 [2]: suppressed

PAI-1 activity % (human PAI-1 [3]; [4]): 26.3%
PAI-1 activity % (human PAI-1 [3]; [5]): 88.4%
Compound: O=C(Nc1ccc(C23CC4CC(CC(C4)C2)C3)cc1)C(=O)Nc1ccc(Cl)cc1C(=O)[O-].[Na+] [Example 106, [(([4-(adamantan-1-yl)phenyl]amino)(oxo)acetyl)amino]-5-sodium chlorobenzoate]

PAI-1 activity % (human PAI-1 [3]; [6]): 0.7%
PAI-1 activity % (human PAI-1 [3]; [7]): 75.8%
Compound: O=C(Nc1ccc(Cl)cc1C(=O)O)c1ccc(C(=O)C23CC4CC(CC(C4)C2)C3)cc1 [Example 56]

Compound: 5-chloro-2-(((3-(cyclohex-1-en-1yl)phenyl)acetyl)amino)benzoic acid [Example 25]
PAI-1 activity % (human PAI-1 [3]; [6]): 0.0%
PAI-1 activity % (human PAI-1 [3]; [7]): 85.8%

Compound: Cl.O=C(O)c1cc(Cl)ccc1NC(=O)N1CCN(C(c2ccccc2)c2ccccc2)CC1 [Example 75, 5-chloro-2-(((4-(diphenylmethyl)piperacin-1-yl)carbonyl)amino)benzoic acid hydrochloride]
PAI-1 activity % (human PAI-1 [3]; [4]): 4.7%
PAI-1 activity % (human PAI-1 [3]; [5]): 86.4%
